The record followed here is article PMC7730458, “Rational Computational Design of Fourth-Generation EGFR Inhibitors to Combat Drug-Resistant Non-Small Cell Lung Cancer” (International Journal of Molecular Sciences, 2020).

One test addresses T1, wild type EGFR (Homo sapiens, UniProt P00533).
T1 construct: purchased Reaction Biology Corp. (Malvern, PA, USA)
The test can be described thus: radiometric ([γ-33P]-ATP) kinase assay, wild-type EGFR. Type of test: biochemical. As for the experimental part:
(§1) This small number of virtual hits exemplifies the difficulty in discovering the fourth-generation inhibitors that are specific for the triple mutant. This can be understood in the context of the high structural similarity between the mutant and the wild type. All virtual hits were assessed for the presence of inhibitory activity against the d746-750/T790M/C797S mutant and the wild type via in vitro radiometric ([γ-^33P]-ATP) kinase assays (Reaction Biology Corp., Malvern, PA, USA). As a consequence of virtual and experimental screening, four molecules were identified as low-micromolar inhibitors of d746-750/T790M/C797S mutant. Actually, none of the four molecules have previously been reported as EGFR kinase inhibitors. With respect to disproving the possibility of acting as a false positive in enzyme inhibition assays, all four inhibitors were examined in the public ZINC database to confirm the lack of any substructure in pan assay interference compounds (PAINS).
(§2) The inhibitory activities of all compounds with respect to the wild type and the d746-750/T790M/C797S mutant of EGFR were measured by Reaction Biology Corp. (Malvern, PA, USA) using the radiometric kinase assays ([γ-^33P]-ATP). Briefly, the enzymatic reaction mixtures contained an artificial substrate peptide, poly-Glu-Tyr (4:1) in freshly prepared base reaction buffer (20 mM HEPES of pH 7.5, 10 mM MgCl2, 1 mM EGTA, 0.02% Brij-35, 0.02 mg/mL BSA, 0.1 mM Na3VO4, 2 mM DTT, 1% DMSO). Wild-type and mutant EGFR were delivered into the substrate solution and gently mixed. Each inhibitor in 100% DMSO in a serial dilution was then delivered to the reaction mixture using the acoustic dispensing system (Echo550; nanoliter range). To initiate the enzymatic reaction, ^33P-ATP with a specific activity of 10 μCi/μL was added into the reaction mixture, and the mixture was further incubated for 2 h at room temperature. Radioactivity was then monitored by the filter-binding method after reactions were spotted onto P81 ion exchange paper and the filters were washed extensively in 0.75% phosphoric acid. Kinase activity data were expressed as the percent remaining kinase activity in test samples compared to vehicle (dimethyl sulfoxide) reactions. IC50 values and curve fits were calculated with Prism Software (GraphPad Software) at 10 different concentrations. Staurosporine was employed as the positive control in this study.

The target in test [1] is T2, d746-750/T790M/C797S mutant EGFR (Homo sapiens, UniProt P00533, C797S/DEL746-750/T790M).
T2 construct: purchased Reaction Biology Corp. (Malvern, PA, USA)
The test can be described thus: radiometric ([γ-33P]-ATP) kinase assay, triple mutant EGFR. Type of test: biochemical. As to conditions: for Selectivity: wild type IC50 over triple mutant IC50; for Selectivity Index (IC50^WT/IC50^mutant): ratio of IC50 for the wild type to that for the triple mutant. Here is the method:
as §1, §2

For test [2], the system named is Ba/F3 cell lines with the wild type EGFR. The test can be described thus: cell proliferation inhibition assay, Ba/F3 wild-type EGFR. As to conditions: Mus musculus, BaF3, 72 h, read-out: IC50 Ba/F3.
Experimental: (§3) The cells were treated with various concentrations of the compounds in duplicate. After 72 h, the fluorescence signals were measured at an excitation wavelength of 540 nm and an emission wavelength of 590 nm using a microplate reader. More specifically, the number of living cells was determined with CellTiter-Glo® Luminescent Cell Viability Assay (Promega).
Test [3] has as its system Ba/F3 cell lines with the d746-750/T790M/C797S mutant EGFR. The test can be described thus: cell proliferation inhibition assay, Ba/F3 triple mutant EGFR. The following applies: for IC50: Mus musculus, BaF3, 72 h, read-out: IC50 Ba/F3^d746-750/T790M/C797S; for Selectivity: Table 4, Ba/F3 wild type IC50 over mutant IC50.
Experimental: as §3
[4] abbreviates: Table 3, derivatives of 2, wild type, mean ± SD of two experiments, read-out: IC50 EGFR.
Setting [5] is: Table 2, derivatives of 1, wild type, mean ± SD of two experiments, read-out: IC50 EGFR.
[6] abbreviates: Table 2, derivatives of 1, mean ± SD of two experiments, read-out: IC50 EGFR^d746-750/T790M/C797S.
The mark [7] stands for this setting: Table 3, derivatives of 2, mean ± SD of two experiments, read-out: IC50 EGFR^d746-750/T790M/C797S.
The mark [8] stands for this setting: Table 1, mean ± standard deviations of two experiments, read-out: IC50 Wild Type.
Setting [9] is: Table 1, mean ± standard deviations of two experiments, read-out: IC50 d746-750/T790M/C797S.

The structures appear in SMILES notation. Read-outs that look alike come from different tables or passages of the source. Bounds are passed on as bounds.

T2 sequence (P00533 with tags, fused parts or gaps DEL746-750/T790M/C797S): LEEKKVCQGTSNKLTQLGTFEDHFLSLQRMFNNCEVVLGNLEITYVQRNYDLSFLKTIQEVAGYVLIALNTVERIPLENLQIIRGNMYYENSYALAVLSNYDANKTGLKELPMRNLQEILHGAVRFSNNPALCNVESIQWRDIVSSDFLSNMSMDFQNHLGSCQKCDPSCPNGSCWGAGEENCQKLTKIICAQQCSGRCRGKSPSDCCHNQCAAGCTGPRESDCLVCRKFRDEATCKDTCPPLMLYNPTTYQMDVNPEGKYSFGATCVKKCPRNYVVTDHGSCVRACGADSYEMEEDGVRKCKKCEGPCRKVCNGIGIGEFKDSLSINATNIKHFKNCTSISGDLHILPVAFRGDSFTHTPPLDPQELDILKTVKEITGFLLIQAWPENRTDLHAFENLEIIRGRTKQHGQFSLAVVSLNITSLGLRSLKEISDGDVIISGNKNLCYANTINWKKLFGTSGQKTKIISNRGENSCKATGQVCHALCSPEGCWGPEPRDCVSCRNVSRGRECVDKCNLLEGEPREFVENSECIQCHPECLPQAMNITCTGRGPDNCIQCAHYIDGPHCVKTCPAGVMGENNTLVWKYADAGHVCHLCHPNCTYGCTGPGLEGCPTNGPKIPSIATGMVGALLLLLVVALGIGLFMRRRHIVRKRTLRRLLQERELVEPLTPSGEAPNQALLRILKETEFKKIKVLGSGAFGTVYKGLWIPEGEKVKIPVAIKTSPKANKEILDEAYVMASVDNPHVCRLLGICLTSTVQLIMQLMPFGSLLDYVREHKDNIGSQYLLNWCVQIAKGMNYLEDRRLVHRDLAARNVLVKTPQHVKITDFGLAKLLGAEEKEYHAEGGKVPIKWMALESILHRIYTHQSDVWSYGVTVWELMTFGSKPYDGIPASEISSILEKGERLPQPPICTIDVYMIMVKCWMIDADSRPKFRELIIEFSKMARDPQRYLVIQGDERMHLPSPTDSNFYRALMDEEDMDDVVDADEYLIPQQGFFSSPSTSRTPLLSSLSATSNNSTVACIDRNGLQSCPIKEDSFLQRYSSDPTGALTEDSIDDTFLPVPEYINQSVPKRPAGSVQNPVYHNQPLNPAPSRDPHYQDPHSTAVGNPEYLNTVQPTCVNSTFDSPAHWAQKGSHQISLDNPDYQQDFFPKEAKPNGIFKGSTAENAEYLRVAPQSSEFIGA
T1 sequence (P00533 25-1210): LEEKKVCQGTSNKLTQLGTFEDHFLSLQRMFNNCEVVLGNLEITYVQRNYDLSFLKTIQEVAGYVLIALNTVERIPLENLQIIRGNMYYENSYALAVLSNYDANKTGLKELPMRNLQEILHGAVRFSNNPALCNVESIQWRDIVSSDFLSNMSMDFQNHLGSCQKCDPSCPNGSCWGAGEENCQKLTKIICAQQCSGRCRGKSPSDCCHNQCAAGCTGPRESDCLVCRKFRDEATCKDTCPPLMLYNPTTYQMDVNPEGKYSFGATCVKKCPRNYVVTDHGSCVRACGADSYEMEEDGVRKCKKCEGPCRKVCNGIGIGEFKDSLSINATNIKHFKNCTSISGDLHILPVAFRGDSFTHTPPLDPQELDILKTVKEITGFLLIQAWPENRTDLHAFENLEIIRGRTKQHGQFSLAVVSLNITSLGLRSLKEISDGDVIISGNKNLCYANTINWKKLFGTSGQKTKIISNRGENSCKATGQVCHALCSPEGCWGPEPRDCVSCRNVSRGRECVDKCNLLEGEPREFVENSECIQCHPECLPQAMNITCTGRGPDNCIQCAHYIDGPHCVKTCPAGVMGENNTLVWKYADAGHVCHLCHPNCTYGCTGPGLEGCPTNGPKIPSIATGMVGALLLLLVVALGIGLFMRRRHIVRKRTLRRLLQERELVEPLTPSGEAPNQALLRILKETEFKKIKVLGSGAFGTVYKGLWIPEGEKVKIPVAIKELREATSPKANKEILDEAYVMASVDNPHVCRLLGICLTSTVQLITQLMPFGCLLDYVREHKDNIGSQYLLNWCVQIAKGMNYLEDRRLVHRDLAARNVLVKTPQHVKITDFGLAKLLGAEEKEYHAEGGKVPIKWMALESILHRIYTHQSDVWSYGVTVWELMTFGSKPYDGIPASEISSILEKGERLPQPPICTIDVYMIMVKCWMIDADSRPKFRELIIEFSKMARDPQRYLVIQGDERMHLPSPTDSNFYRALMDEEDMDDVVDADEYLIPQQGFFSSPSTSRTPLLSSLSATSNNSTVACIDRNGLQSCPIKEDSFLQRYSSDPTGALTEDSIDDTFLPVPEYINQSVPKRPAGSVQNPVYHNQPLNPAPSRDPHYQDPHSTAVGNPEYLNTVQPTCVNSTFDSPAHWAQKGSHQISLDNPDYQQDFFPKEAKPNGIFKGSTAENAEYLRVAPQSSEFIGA

On to `N#Cc1ccc(O)c(-c2nc(NCc3cc[nH]c3)c3ccccc3n2)c1` [Compound 16, 3-(4-(((1H-pyrrol-3-yl)methyl)amino)quinazolin-2-yl)-4-hydroxybenzonitrile], for which, on wild type EGFR (setting [4]), the IC50 is above 50000 nM. The Selectivity in test [1] (Table 3) is recorded as above 693.

For `CC1CCCN(Cc2c(O)ccc3c2O/C(=C\c2cc4ccccc4o2)C3=O)C1` (stereo not shown) [Compound 6, (Z)-2-(benzofuran-2-ylmethylene)-6-hydroxy-7-((3-methylpiperidin-1-yl)methyl)benzofuran-3(2H)-one], the figures for the IC50 (on wild type EGFR (setting [5]); in test [1] (setting [6])) were 65700 ± 6000 nM and 1940 ± 350 nM, respectively. For the same compound, the Selectivity in test [1] (Table 2) worked out at 33.9.

For the compound `COc1cc(N2CCC(N3CCN(C)CC3)CC2)ccc1Nc1ncc(Cl)c(Nc2ccccc2P(C)(C)=O)n1` [Brigatinib, reference compound], in test [2], the IC50 came out at 1560 ± 450 nM. In addition, in test [3], the IC50 was 67 ± 14 nM and the Selectivity was determined as 23.3.

With `COc1ccc2oc(/C=C3\Oc4c(ccc(O)c4CN4CCCC(C)C4)C3=O)cc2c1` (stereo not shown) [Compound 8, (Z)-6-hydroxy-2-((5-methoxybenzofuran-2-yl)methylene)-7-((3-methylpiperidin-1-yl)methyl)benzofuran-3(2H)-one], the IC50 was above 100000 nM at wild type EGFR (setting [5]) and 20100 ± 7200 nM in test [1] (setting [6]). The Selectivity in test [1] (Table 2) was above 4.98.

Regarding `O=C1/C(=C/c2cc3ccccc3o2)Oc2c1ccc(O)c2CN1CCNCC1` [Compound 9, (Z)-2-(benzofuran-2-ylmethylene)-6-hydroxy-7-(piperazin-1-ylmethyl)benzofuran-3(2H)-one], the IC50 worked out at 21300 ± 6300 nM at wild type EGFR (setting [5]) and 1100 ± 360 nM in test [1] (setting [6]).

In the case of `Oc1ccccc1-c1nc(NCc2cscn2)c2ccccc2n1` [Compound 14, 2-(4-((thiazol-4-ylmethyl)amino)quinazolin-2-yl)phenol], the IC50 was above 50000 nM on wild type EGFR (setting [4]) and 1120 ± 210 nM in test [1] (setting [7]). Further, the Selectivity in test [1] (Table 3) was above 44.6.

Turning to `CCN(CC)CCCNc1nc(-c2cc(C#N)ccc2O)nc2ccccc12` [Compound 13, 3-(4-((3-(diethylamino)propyl)amino)quinazolin-2-yl)-4-hydroxybenzonitrile], the IC50 at wild type EGFR (setting [4]) was 8450 ± 1890 nM; in test [1] (setting [7]), 26.5 ± 8.4 nM. The compound further came in with a Selectivity in test [1] (Table 3) of 319.

Turning to `Oc1ccccc1-c1nc(NCCN2CCOCC2)c2ccccc2n1` [Compound 2], the IC50 was determined as 37100 ± 2300 nM at wild type EGFR (setting [8]) and 1730 ± 380 nM in test [1] (setting [9]). For the same compound, the “Selectivity Index (IC50^WT/IC50^mutant)” value in test [1] (Table 1) was 21.4. For the same compound, in test [1] (Table 3), the Selectivity worked out at 21.4.

Turning to `COc1ccccc1Nc1nc(N)nc(-c2oc3ccccc3c2C)n1` [Compound 3], the IC50 at wild type EGFR (setting [8]) stood at 35500 ± 3500 nM; in test [1] (setting [9]) it was 2890 ± 910 nM. Further, the “Selectivity Index (IC50^WT/IC50^mutant)” value in test [1] (Table 1) is on record as 12.3.

In the case of `N#Cc1ccc(O)c(-c2nc(NCCc3c[nH]cn3)c3ccccc3n2)c1` [Compound 20, 3-(4-((2-(1H-imidazol-4-yl)ethyl)amino)quinazolin-2-yl)-4-hydroxybenzonitrile], the IC50 at wild type EGFR (setting [4]) was above 50000 nM; in test [1] (setting [7]), 4.84 ± 0.63 nM. Further, in test [1], the “biochemical potency against the d746-750/T790M/C797S mutant (in words)” value is reported as “low-nanomolar”. For the same compound, in test [1] (Table 3), the Selectivity is above 10331. Moreover, the “selectivity index / factor, triple mutant over the wild type” value in test [1] (enzyme assays) is “higher than 10^4”.

Consider `Cn1cnc(CNc2nc(-c3cc(C#N)ccc3O)nc3ccccc23)c1` [Compound 19, 4-hydroxy-3-(4-(((1-methyl-1H-imidazol-4-yl)methyl)amino)quinazolin-2-yl)benzonitrile], for which the IC50 is above 50000 nM at wild type EGFR (setting [4]), 3.38 ± 1.02 nM in test [1] (setting [7]), 2470 ± 890 nM in test [2] and 740 ± 220 nM in test [3]. The “biochemical potency against the d746-750/T790M/C797S mutant (in words)” value in test [1] was “low-nanomolar”. Moreover, the Selectivity is above 14793 in test [1] (Table 3) and 3.34 in test [3]. For the same compound, the “selectivity index / factor, triple mutant over the wild type” value in test [1] (enzyme assays) was “higher than 10^4”. Also, the “antiproliferative activity against the d746-750/T790M/C797S mutant cell (in words)” value in test [3] is on record as “submicromolar level”.

Turning to `N#Cc1ccc(O)c(-c2nc(NCc3cocn3)c3ccccc3n2)c1` [Compound 17, 4-hydroxy-3-(4-((oxazol-4-ylmethyl)amino)quinazolin-2-yl)benzonitrile], the results for the IC50 (on wild type EGFR (setting [4]); in test [1] (setting [7])) were above 50000 nM and 593 ± 76 nM, respectively. This compound came in with a Selectivity in test [1] (Table 3) above 84.3.

Consider `O=C1/C(=C/c2cc3cc(O)ccc3o2)Oc2c1ccc(O)c2CN1CCNCC1` [Compound 11, (Z)-6-hydroxy-2-((5-hydroxybenzofuran-2-yl)methylene)-7-(piperazin-1-ylmethyl)benzofuran-3(2H)-one], for which the IC50 was found to be 1040 ± 160 nM on wild type EGFR (setting [5]) and 715 ± 242 nM in test [1] (setting [6]). In test [1] (Table 2), this compound returned a Selectivity of 1.45.

On to `N#Cc1ccc(O)c(-c2nc(NCc3c[nH]cn3)c3ccccc3n2)c1` [Compound 18, 3-(4-(((1H-imidazol-4-yl)methyl)amino)quinazolin-2-yl)-4-hydroxybenzonitrile], for which the IC50 was above 50000 nM on wild type EGFR (setting [4]), 7.47 ± 0.39 nM in test [1] (setting [7]), above 5000 nM in test [2] and 780 ± 310 nM in test [3]. The “biochemical potency against the d746-750/T790M/C797S mutant (in words)” value in test [1] is listed as “low-nanomolar level”. Further, the Selectivity in test [1] (Table 3) was above 6693; in test [3], above 6.41. Further, in test [1] (enzyme assays), the “selectivity in the inhibition of EGFR^d746-750/T790M/C797S over the wild type” value is “more than 6690 fold”. For the same compound, in test [3], the “antiproliferative activity against the d746-750/T790M/C797S mutant cell (in words)” value is given as “submicromolar level”.

As to `O=C1/C(=C/c2cc3ccccc3o2)Oc2c1ccc(O)c2CN1CCCCC1` [Compound 5, (Z)-2-(benzofuran-2-ylmethylene)-6-hydroxy-7-(piperidin-1-ylmethyl)benzofuran-3(2H)-one], the IC50 on wild type EGFR (setting [5]) was 68700 ± 3400 nM; in test [1] (setting [6]), 3010 ± 730 nM. The compound further had a Selectivity in test [1] (Table 2) of 22.8.

With `c1ccc(CNc2ncnc3oc(-c4ccccc4)c(-c4ccccc4)c23)cc1` [Compound 4], the “biochemical potency against the wild-type EGFR (in words)” value on wild type EGFR is reported as “nanomolar level”. Further, the IC50 is 5.88 ± 0.98 nM at wild type EGFR (setting [8]) and 802 ± 55 nM in test [1] (setting [9]). Also, the “higher inhibitory activity against the wild type than against the d746-750/T790M/C797S mutant” value at wild type EGFR (enzyme assays) stood at 136 fold. Also, in test [1] (Table 1), the “Selectivity Index (IC50^WT/IC50^mutant)” value is listed as 0.00733.

Turning to `CC1CCCCN1Cc1c(O)ccc2c1O/C(=C\c1cc3ccccc3o1)C2=O` (stereo not shown) [Compound 1], the IC50 was 72700 ± 4800 nM on wild type EGFR (setting [8]) and 2110 ± 560 nM in test [1] (setting [9]). In addition, the “Selectivity Index (IC50^WT/IC50^mutant)” value in test [1] (Table 1) is 34.5. In test [1] (Table 2), this compound came in with a Selectivity of 34.5.

Turning to `COc1ccc2oc(/C=C3\Oc4c(ccc(O)c4CN4CCNCC4)C3=O)cc2c1` [Compound 10, (Z)-6-hydroxy-2-((5-methoxybenzofuran-2-yl)methylene)-7-(piperazin-1-ylmethyl)benzofuran-3(2H)-one], the results for the IC50 (at wild type EGFR (setting [5]); in test [1] (setting [6])) were 36800 ± 3900 nM and 1630 ± 430 nM, respectively. In test [1] (Table 2), this compound showed a Selectivity of 22.6.

On to `Cn1cnc(CNc2nc(-c3cc(C=O)ccc3O)nc3ccccc23)c1` [Compound 21, 4-hydroxy-3-(4-(((1-methyl-1H-imidazol-4-yl)methyl)amino)quinazolin-2-yl)benzaldehyde], for which the IC50 on wild type EGFR (setting [4]) is 935 ± 173 nM; in test [1] (setting [7]) it was 7.93 ± 1.68 nM. Further, the Selectivity in test [1] (Table 3) was 118.

On to `CC1CCN(Cc2c(O)ccc3c2O/C(=C\c2cc4ccccc4o2)C3=O)CC1` [Compound 7, (Z)-2-(benzofuran-2-ylmethylene)-6-hydroxy-7-((4-methylpiperidin-1-yl)methyl)benzofuran-3(2H)-one], for which the IC50 on wild type EGFR (setting [5]) was 78700 ± 4600 nM; in test [1] (setting [6]), 5290 ± 1800 nM. Besides, the Selectivity in test [1] (Table 2) is on record as 14.8.

For `CCN(CC)CCCNc1nc(-c2ccccc2O)nc2ccccc12` [Compound 12, 2-(4-((3-(diethylamino)propyl)amino)quinazolin-2-yl)phenol], the IC50 was above 50000 nM on wild type EGFR (setting [4]) and 516 ± 206 nM in test [1] (setting [7]). For the same compound, the Selectivity in test [1] (Table 3) is above 96.9.
